This is an account of results in BindingDB's records for doi:10.1021/jm970101g (Abbott Laboratories, 1997).

For the assay, the target named is Endothelin-1 receptor (Rattus norvegicus) (UniProt P26684). In words: Ability to block the ET-1-induced hydrolysis of inositol phosphate in Endothelin A receptor of MMQ cells.
Sequence of Endothelin-1 receptor (Rattus norvegicus) (P26684 whole entry, looked up): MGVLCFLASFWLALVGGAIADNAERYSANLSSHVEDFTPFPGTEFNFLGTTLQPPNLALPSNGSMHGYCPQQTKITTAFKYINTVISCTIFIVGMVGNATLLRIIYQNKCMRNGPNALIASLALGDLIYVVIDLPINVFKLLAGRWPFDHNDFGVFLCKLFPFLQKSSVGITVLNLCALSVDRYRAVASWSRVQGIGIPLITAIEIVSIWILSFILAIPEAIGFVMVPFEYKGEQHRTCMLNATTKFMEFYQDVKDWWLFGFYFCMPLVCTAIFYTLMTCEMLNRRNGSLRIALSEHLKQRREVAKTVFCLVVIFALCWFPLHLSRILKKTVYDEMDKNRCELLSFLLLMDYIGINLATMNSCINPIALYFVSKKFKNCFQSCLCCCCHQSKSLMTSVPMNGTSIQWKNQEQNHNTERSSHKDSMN

As to `CCCN(CCN1C[C@H](c2ccc3c(c2)OCO3)[C@@H](C(=O)O)[C@@H]1c1ccc(OC)c(F)c1)S(=O)(=O)CCCCl` [(2R,3R,4S)-4-Benzo[1,3]dioxol-5-yl-1-{2-[(3-chloro-propane-1-sulfonyl)-propyl-amino]-ethyl}-2-(3-fluoro-4-methoxy-phenyl)-pyrrolidine-3-carboxylic acid], it took 550 pM to reach half-maximal inhibition (IC50).
